Square brackets hold non-standard residues; d marks the D form. Peptide text beside a SMILES is read from it. * marks the point of attachment. IRDye800CW = CC1(C)C(/C=C/C2=C(Oc3ccc(S(=O)(=O)O)cc3)C(=C/C=C3/N(CCCCS(=O)(=O)O)c4ccc(S(=O)(=O)O)cc4C3(C)C)/CCC2)=[N+](CCCCCC(=O)*)c2ccc(S(=O)(=O)[O-])cc21; Cha = N[C@@H](CC1CCCCC1)C(=O)O; AEEA = NCCOCCOCC(=O)O
What was measured:
[1] = system: orthotopic GBM (U-87 MG-luc2 cells); experiment: dynamic NIR imaging of orthotopic GBM on cross sectioned brain (Fluobeam); assay type: in vivo, mice; settings: for tumor mean fluorescence intensity (MFI): 333 ms exposure
Protocol: All experimental procedures in animals were carried out in accordance with the approval by The Animal Experiments Inspectorate, Denmark. 7-10-week-old female nude mice (strain: Rj:NMRI-Foxn1nu/nu, JANVIER LABS, France) were orthotopically xenografted with U-87 MG-luc2 cells.
The orthotopic GBM tumor model was established by inoculation of 500.000 cells in 10 μL ice cold PBS in the right hemisphere (1.5 mm lateral and 0.5 mm posterior to the bregma at 2 mm depth) using a stereotaxic frame (KOPF INSTRUMENTS, Tujunga, Calif., USA) with the automated microinjection pump UMP3 (WPI, Sarasota, Fla., USA). The cells were injected over 5 min with the syringe kept in place for further 3 min before retraction. Tumor growth was subsequently monitored on MRI with the BioSpec 7T (Bruker, Billerica, Mass., USA) with axial and coronal T2-wighted sequences. When the tumor size reached 2-17 mm^3, the animals were included in the fluorescence imaging protocol.
All image acquisition was performed with the Fluobeam system with (Fluosoft version: 2.2.1) (Fluoptics, Grenoble, France). To characterize the in vivo biodistribution and tumor imaging properties, IRDye800-AE344 was administered through tail vein injection into all the GBM bearing mice (n=35) at four different doses: 1 nmol, 3 nmol, 6 nmol, and 12 nmol. Two mice were sacrificed for each time point and the brain was removed and cross sectioned through the tumor for imaging. […] Accordingly, image acquisition was performed at following time points after injection: • 1 nmol: 0.5 h, 1 h, and 2 h • 3 nmol: 1 h, 2 h, 3 h, and 5 h • 6 nmol: 1 h, 3 h, 6 h, and 12 h • 12 nmol: 1 h, 3 h, 5 h, 10 h, 15 h, and 24 h
(§1) Images were analyzed and processed in ImageJ 1.52a, NIH, USA. Signal measurements were performed on the raw images generated by the Fluoptics system. Tumor signal was measured as a mean fluorescence intensity of the whole tumor and background signal was measured as the mean of a representative area with no tumor on the contralateral hemisphere. Presented pictures are contrast enhanced in ImageJ with the Contrast Enhancement (Saturated pixels: 0.3%).

uPAR wt = uPAR wt (Homo sapiens, UniProt Q03405); experiment: SPR inhibition of uPAR binding to immobilized uPA
uPAR wt, sequence (Q03405 23-305 limits assumed): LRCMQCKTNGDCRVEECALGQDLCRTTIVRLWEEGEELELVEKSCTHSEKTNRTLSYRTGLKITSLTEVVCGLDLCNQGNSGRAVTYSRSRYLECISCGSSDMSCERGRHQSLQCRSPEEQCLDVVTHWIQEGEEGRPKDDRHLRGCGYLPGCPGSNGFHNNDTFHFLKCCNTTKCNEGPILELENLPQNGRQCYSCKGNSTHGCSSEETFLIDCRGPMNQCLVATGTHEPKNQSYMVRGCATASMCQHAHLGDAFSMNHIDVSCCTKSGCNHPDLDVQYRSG
Protocol: (§2) Covalent immobilization of purified human prouPA^S356A—was accomplished by injecting 12.5 μg/ml protein dissolved in 10 mM sodium acetate (pH 5.0) over a CM5 chip that had been pre-activated with NHS/EDC (N-ethyl-N′-[3-[…])propyl]-carbodiimide), aiming at a surface density of >5000 resonance units (RU) corresponding to 100 fmols/mm^2. After coupling the sensorchip was deactivated with 1 M ethanolamine. Binding of purified human uPAR as analyte was measured from 4 nM to 0.25 nM at 20° C. using 10 mM HEPES, 150 mM NaCl, 3 mM EDTA (pH 7.4) containing 0.05% (v/v) surfactant P20 as running buffer at a flow rate of 50 μl/min. In between cycles the sensorchip was regenerated by two consecutive 10-μl injections of 0.1 M acetic acid/HCl (pH 2.5) in 0.5 M NaCl. The inhibition of 3-fold dilutions of the compounds in question was measured for 4 nM uPAR with identical running conditions. All experiments were performed on a BiacoreT200 instrument.
(§3) For each inhibition peptide inhibition profile of uPAR binding to immobilized uPA there has been run a preceding standard curve and all calculations are based on the that standard curve.
(§4) Surface plasmon resonance (SPR) was applied to determine the […]-value of IRDye800-AE344 on the uPAR⋅uPA interaction in solution using a Biacore 3000 instrument essentially as described. In brief; pro-uPA^S356A, which is the natural ligand for uPAR. […] The analysis was carried out by measuring vobs of a fixed uPAR concentration (2 nM) incubated with a 3-fold dilution series of IRDye800-AE344 (ranging from 0.076 nM to 1.5 μM) for 300 sec at 20° C. with a flow rate of 50 μL/min. A standard curve was measured in parallel (2-fold dilution of uPAR covering 0.06 nM to 2 nM) including one repeated concentration point at the end to validate the biological integrity of the sensor chip. Running buffer contained 10 mM HEPES, 150 mM NaCl, 3 mM EDTA and 0.05% (v/v) surfactant P20, pH 7.4. The sensor chip was regenerated with two injections of 0.1 M acetic acid, 0.5 M NaCl. The parent nonamer peptide antagonist AE105 (Asp-Cha-Phe-D-Ser-D-Arg-Tyr-Leu-Trp-Ser-OH) was analyzed in parallel as positive control and the closed uPAR^H47C-N259C was used as negative control as its uPA binding cavity cannot accommodate AE105.

uPAR H47C-N259C = uPAR H47C-N259C (Homo sapiens, UniProt Q03405, H69C/N281C); experiment: SPR inhibition of uPAR binding to immobilized uPA, constrained uPAR variant (negative control)
uPAR H47C-N259C, sequence (Q03405 23-305 H69C/N281C limits assumed): as the sequence (Q03405 23-305 limits assumed) above, with H47C, N259C counted along it
Protocol: as §2, §3
as §4, with “Running buffer contained 10 mM HEPES, 150 mM NaCl, 3 mM EDTA and 0.05% (v/v) surfactant P20, pH 7.4. The sensor chip was regenerated with two injections of 0.1 M acetic acid, 0.5 M NaCl.” left out

[2] = system: orthotopic GBM (U-87 MG-luc2 cells); experiment: in vivo binding specificity in orthotopic GBM (blocking with AE120, scrambled probe); parameters: species or system mice; settings: 3 nmol, 1 h
Protocol: The target specificity to uPAR was evaluated by two different methods: competitive blocking with the uPAR targeting peptide AE120 ((DChaFsrYLWSG)2-βAK) and IRDye800 conjugated to a scrambled peptide, AE354 (IRDye800CW-Glu-Glu-NH—CH2—CH2—O—CH2—CH2—O—CH2—CO—NH—CH2—CH2—O—CH2—CH2—O—CH2—CO-Asp-Cha-Glu-(D)Ser-(D)Arg-Tyr-Leu-Glu-Ser-OH) with similar peptide length as the active peptide. The competitive blocking dose of 1.4-2.8 mg AE120 was injected intraperitoneally 15-30 min prior to intravenous injection of 3 nmol IRDye800CW-AE344 and imaged at 1 h (n=5). The scrambled peptide was administered at 3 nmol and the animals were imaged after 1 h (n=4).
as §1

CC(C)C[C@H](NC(=O)[C@H](Cc1ccc(O)cc1)NC(=O)[C@@H](CCCNC(=N)N)NC(=O)[C@@H](CO)NC(=O)[C@H](Cc1ccccc1)NC(=O)[C@H](CC1CCCCC1)NC(=O)[C@H](CC(=O)O)NC(=O)COCCOCCNC(=O)COCCOCCNC(=O)[C@H](CCC(=O)O)NC(=O)[C@H](CCC(=O)O)NC(=O)CCCCC[N+]1=C(/C=C/C2=C(Oc3ccc(S(=O)(=O)O)cc3)C(=C/C=C3/N(CCCCS(=O)(=O)O)c4ccc(S(=O)(=O)O)cc4C3(C)C)/CCC2)C(C)(C)c2cc(S(=O)(=O)[O-])ccc21)C(=O)N[C@@H](Cc1c[nH]c2ccccc12)C(=O)N[C@@H](CO)C(=O)O [IRDye800CW-AE344, IRDye800-Glu-Glu-O2Oc-O2Oc-Asp-Cha-Phe-D-ser-D-arg-Tyr-Leu-Trp-Ser-OH] (IRDye800CW-EE[AEEA][AEEA]D[Cha]F[dS][dR]YLWS-OH)
maximal TBR ([1]; 1 nmol, at 0.5 h): 4.4
tumor mean fluorescence intensity (MFI) ([1]; 1 nmol, at time of maximal TBR (0.5 h)): 29 a.u.
maximal TBR ([1]; 3 nmol, at 1 h): 6.6
tumor mean fluorescence intensity (MFI) ([1]; 3 nmol, at time of maximal TBR (1 h)): 77 a.u.
TBR ([1]; 6 nmol, 1 h): 4.7
tumor MFI ([1]; 6 nmol, 1 h): 108 a.u.
tumor mean fluorescence intensity (MFI) ([1]; 6 nmol, 3 h): 82 a.u.
TBR (highest) ([1]; 6 nmol, 3 h after injection): 7.0
TBR ([1]; 6 nmol, 6 h): 6.1
TBR ([1]; 6 nmol, 12 h): 4.5
decrease in tumor MFI ([1]; 6 nmol, from 1 h to 3 h): 24%
TBR ([1]; 6 nmol, from 1 h to 12 h after injection): above 4.5
peak time of TBR ([1]; 12 nmol): 15 h
tumor MFI relative to that at 6 nmol ([1]; 12 nmol): 58%
maximal TBR ([1]; 12 nmol, at 15 h): 6.7
tumor mean fluorescence intensity (MFI) ([1]; 12 nmol, at time of maximal TBR (15 h)): 48 a.u.
IC50 (uPAR wt): 20 ± 1.1 nM
IC50 (uPAR H47C-N259C): 5.8 ± 0.02 µM
TBR ([2]; blocked with AE120): 4.6
normalized TBR (ref: active probe) ([2]; competitively blocked with AE120): 0.70
TBR ([2]; no blocking): 6.6
normalized TBR (ref: active probe) ([2]; no blocking): 1.00

— patent US20210138090A1, “uPAR targeting peptide for use in peroperative optical imaging of invasive cancer” (FLUOGUIDE A/S, priority 2014, published 2021)
